# In ChEMBL document CHEMBL1134723, “Synthesis and evaluation of the sunflower derived trypsin inhibitor as a potent inhibitor of the type II transmembrane serine protease, matriptase” (Bioorg Med Chem Lett, 2001):
# Molecular target: Prothrombin (Bos taurus, UniProt P00735)
# Test: Compound was tested for inhibition of bovine Thrombin
smiles,measurement,value
CC[C@H](C)[C@@H]1NC(=O)[C@@H]2CCCN2C(=O)[C@@H]2CCCN2C(=O)[C@H]([C@@H](C)CC)NC(=O)[C@H](CO)NC(=O)[C@H](CCCCN)NC(=O)[C@H]([C@@H](C)O)NC(=O)[C@@H]2CSSC[C@H](NC1=O)C(=O)N[C@@H](Cc1ccccc1)C(=O)N1CCC[C@@H]1C(=O)N[C@@H](CC(=O)O)C(=O)NCC(=O)N[C@@H](CCCN=C(N)N)C(=O)N2,Ki,5.05 µM
